Laboratory results taken from patent publication US11312719B2, “9-substituted amino triazolo quinazoline derivatives as adenosine receptor antagonists, pharmaceutical compositions and their use” (Merck Sharp & Dohme Corp., priority 2018, dated 2022).
pIC50: −log10 of the molar value.

How the values were obtained:
human A2A receptors = human A2A receptors (Homo sapiens (Human), UniProt P29274); test: A2A antagonism in cAMP cell-based assay (LANCE cAMP, HEK293); details: HEK293 cells expressing human A2A receptor
Sequence of human A2A receptors (P29274 whole entry): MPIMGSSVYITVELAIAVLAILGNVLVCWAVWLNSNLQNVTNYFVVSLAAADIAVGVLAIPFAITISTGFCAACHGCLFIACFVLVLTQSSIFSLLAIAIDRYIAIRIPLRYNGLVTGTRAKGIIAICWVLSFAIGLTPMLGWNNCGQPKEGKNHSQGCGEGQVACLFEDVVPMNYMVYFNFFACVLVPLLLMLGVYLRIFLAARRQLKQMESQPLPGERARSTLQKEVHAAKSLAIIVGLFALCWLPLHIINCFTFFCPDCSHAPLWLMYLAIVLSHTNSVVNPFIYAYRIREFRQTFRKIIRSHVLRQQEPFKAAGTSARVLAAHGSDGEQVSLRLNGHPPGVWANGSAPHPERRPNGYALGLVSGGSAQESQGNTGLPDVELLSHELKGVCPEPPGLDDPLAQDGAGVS
Method: (§1) Measurement of A2A and A2B Antagonism in cAMP Cell-Based Assay
(§2) The ability of compounds to antagonize human A2A and A2B adenosine receptors was determined using a kit to measure changes in intracellular cyclic AMP levels (LANCE cAMP 384 Kit, Perkin Elmer, Cat. No. AD0264). HEK293 cells recombinantly expressing either human A2A or A2B receptors, previously frozen in Recovery Medium (Life Technologies, Cat. No. 12648-010) were thawed and diluted into stimulation buffer (HBSS (Hyclone SH 30268.01), 5 mM HEPES (Gibco 15630-106), 200 nM rolipram (Tocris, Cat. No. 0905), and 1.5% (V/v) BSA stabilizer (kit component). The cell suspension was centrifuged at 200×g for 10 min and then resuspended in stimulation buffer, supplemented with a 1:10 000 dilution of Alexa Fluor 647 anti-cAMP antibody, to a density of 6.0×10^5 cells/mL. A Labcyte Echo 550 acoustic dispenser was used to transfer up to 25 nL of test compound dissolved in DMSO into the wells of a dry Optiplate-384 plate (Perkin Elmer, Cat. No. 6008289). All subsequent liquid additions were performed using a multichannel pipettor. Next, 5 μL of the cell suspension was added to the wells of the Optiplate-384 and incubated for 30 min. at 37° C. and 5% CO2 in a humidified environment. After this time 5 μL of either 300 nM or 600 nM adenosine (Sigma Cat. No. A9251) for A2A and A2B respectively was added and incubated for 30 minutes at 37° C. and 5% CO2 in a humidified environment. At this time detection mix was prepared by combining the LANCE Eu-W8044 labeled streptavidin and Biotin-cAMP in detection buffer according to the manufacturers protocol. 10 μL of the detection mix was added to each well of the Optiplate-384 which was covered with a plate seal and incubated under ambient conditions for 2 hours prior to reading the plate using an Envision (Perkin Elmer, Waltham, Mass.) multimode plate reader. Data was normalized by defining minimal effect as stimulation in the presence of 0.25% (v/v) DMSO and maximal effect as stimulation in the presence of 1 μM ZM241385 (Cayman, Cat. No. 1036). Curve fitting of the percent effect data versus the log of compound concentration used a 4-parameter concentration response curve fitting algorithm to calculate IC50 values. Compound concentrations tested were 10,000, 3,333, 1,111, 370.4, 123.4, 41.2, 13.7, 4.6, 1.5 and 0.5 nM with 0.25% residual DMSO.

human A2B receptors = human A2B receptors (Homo sapiens (Human), UniProt P29275); test: A2B antagonism in cAMP cell-based assay (LANCE cAMP, HEK293); details: HEK293 cells expressing human A2B receptor
Sequence of human A2B receptors (P29275 whole entry): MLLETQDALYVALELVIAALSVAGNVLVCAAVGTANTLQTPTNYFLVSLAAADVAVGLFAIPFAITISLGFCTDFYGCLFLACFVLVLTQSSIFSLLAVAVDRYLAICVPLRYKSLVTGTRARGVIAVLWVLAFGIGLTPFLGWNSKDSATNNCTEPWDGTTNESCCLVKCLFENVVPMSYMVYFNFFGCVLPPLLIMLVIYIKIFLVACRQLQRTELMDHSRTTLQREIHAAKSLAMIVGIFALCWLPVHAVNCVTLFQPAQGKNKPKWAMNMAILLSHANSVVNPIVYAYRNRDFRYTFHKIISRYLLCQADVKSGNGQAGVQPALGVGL
Method: as §1, §2

pIC50 (human A2A receptors) | pIC50 (human A2B receptors) | A2B cAMP % Inh. @10000 nM (human A2B receptors; at 10000 nM) | Compound
7.52 | 5.70 |  | COc1cc(F)cc2c1nc(N)n1nc(C3CC(C)CN(c4cn(C(C)(C)CO)nc4C)C3)nc21 (single isomer, unassigned) [Example 175, 2-(4-((3R,5S or 3S,5R)-3-(5-amino-9-fluoro-7-methoxy-[1,2,4]triazolo[1,5-c]quinazolin-2-yl)-5-methylpiperidin-1-yl)-3-methyl-1H-pyrazol-1-yl)-2-methylpropan-1-ol]
9.05 | 7.99 |  | COc1cc(F)cc2c1nc(N)n1nc(C3CC(C)CN(c4cn(C(C)(C)CO)nc4C)C3)nc21 (single isomer, unassigned) [Example 176, 2-(4-((3S,5R or 3R,5S)-3-(5-amino-9-fluoro-7-methoxy-[1,2,4]triazolo[1,5-c]quinazolin-2-yl)-5-methylpiperidin-1-yl)-3-methyl-1H-pyrazol-1-yl)-2-methylpropan-1-ol]
6.81 | 5.40 |  | Cc1nn(C(C)(C)CO)cc1N1CC(C)CC(c2nc3c4cc(F)cc(F)c4nc(N)n3n2)C1 (single isomer, unassigned) [Example 177, 2-(4-((3R,5S or 3S,5R)-3-(5-amino-7,9-difluoro-[1,2,4]triazolo[1,5-c]quinazolin-2-yl)-5-methylpiperidin-1-yl)-3-methyl-1H-pyrazol-1-yl)-2-methylpropan-1-ol]
9.22 | 7.94 |  | Cc1nn(C(C)(C)CO)cc1N1CC(C)CC(c2nc3c4cc(F)cc(F)c4nc(N)n3n2)C1 (single isomer, unassigned) [Example 178, 2-(4-((3S,5R or 3R,5S)-3-(5-amino-7,9-difluoro-[1,2,4]triazolo[1,5-c]quinazolin-2-yl)-5-methylpiperidin-1-yl)-3-methyl-1H-pyrazol-1-yl)-2-methylpropan-1-ol]
8.40 | 6.47 |  | CC1CC(c2nc3c4cc(F)cc(F)c4nc(N)n3n2)CN(c2cnn(C(C)(C)CO)c2)C1 (single isomer, unassigned) [Example 179]

Further lines, the compound ahead of its results:

Compound | pIC50 (human A2A receptors) | pIC50 (human A2B receptors) | A2B cAMP % Inh. @10000 nM (human A2B receptors; at 10000 nM)
CC1CC(c2nc3c4cc(F)cc(F)c4nc(N)n3n2)CN(c2cnn(CC(C)(C)O)c2)C1 (single isomer, unassigned) [Example 163, 1-(4-((3R,5S or 3S,5R)-3-(5-amino-7,9-difluoro-[1,2,4]triazolo[1,5-c]quinazolin-2-yl)-5-methylpiperidin-1-yl)-1H-pyrazol-1-yl)-2-methylpropan-2-ol] | 7.44 | 5.28 | 
CC1CC(c2nc3c4cc(F)cc(F)c4nc(N)n3n2)CN(c2cnn(CC(C)(C)O)c2)C1 (single isomer, unassigned) [Example 164, 1-(4-((3S,5R or 3R,5S)-3-(5-amino-7,9-difluoro-[1,2,4]triazolo[1,5-c]quinazolin-2-yl)-5-methylpiperidin-1-yl)-1H-pyrazol-1-yl)-2-methylpropan-2-ol] | 8.72 | 7.32 | 
COc1cc(F)cc2c1nc(N)n1nc(C3CC(C)CN(c4cnn(C(C)(C)CO)c4)C3)nc21 (single isomer, unassigned) [Example 165, 2-(4-((3R,5S or 3S,5R)-3-(5-amino-9-fluoro-7-methoxy-[1,2,4]triazolo[1,5-c]quinazolin-2-yl)-5-methylpiperidin-1-yl)-1H-pyrazol-1-yl)-2-methylpropan-1-ol] | 9.10 | 8.19 | 
COc1cc(F)cc2c1nc(N)n1nc(C3CC(C)CN(c4cnn(C(C)(C)CO)c4)C3)nc21 (single isomer, unassigned) [Example 166, 2-(4-((3S,5R or 3R,5S)-3-(5-amino-9-fluoro-7-methoxy-[1,2,4]triazolo[1,5-c]quinazolin-2-yl)-5-methylpiperidin-1-yl)-1H-pyrazol-1-yl)-2-methylpropan-1-ol] | 7.70 | 5.56 | 
Cc1nn(CC(C)(C)O)cc1N1CC(C)CC(c2nc3c4cc(F)cc(F)c4nc(N)n3n2)C1 (single isomer, unassigned) [Example 167, 1-(4-((3R,5S or 3S,5R)-3-(5-amino-7,9-difluoro-[1,2,4]triazolo[1,5-c]quinazolin-2-yl)-5-methylpiperidin-1-yl)-3-methyl-1H-pyrazol-1-yl)-2-methylpropan-2-ol] | 9.22 | 7.34 | 
Cc1nn(CC(C)(C)O)cc1N1CC(C)CC(c2nc3c4cc(F)cc(F)c4nc(N)n3n2)C1 (single isomer, unassigned) [Example 168, 1-(4-((3S,5R or 3R,5S)-3-(5-amino-7,9-difluoro-[1,2,4]triazolo[1,5-c]quinazolin-2-yl)-5-methylpiperidin-1-yl)-3-methyl-1H-pyrazol-1-yl)-2-methylpropan-2-ol] | 7.62 | 5.33 | 
COc1cc2nc(N)n3nc(C4CC(C)CN(c5cn(C(C)(C)CO)nc5C)C4)nc3c2cc1F (single isomer, unassigned) [Example 169, 2-(4-((3S,5S or 3S,5R)-3-(5-amino-9-fluoro-8-methoxy-[1,2,4]triazolo[1,5-c]quinazolin-2-yl)-5-methylpiperidin-1-yl)-3-methyl-1H-pyrazol-1-yl)-2-methylpropan-1-ol] | 7.02 | 5.47 | 
COc1cc2nc(N)n3nc(C4CC(C)CN(c5cn(C(C)(C)CO)nc5C)C4)nc3c2cc1F (single isomer, unassigned) [Example 170, 2-(4-((3S,5R or 3R,5S)-3-(5-amino-9-fluoro-8-methoxy-[1,2,4]triazolo[1,5-c]quinazolin-2-yl)-5-methylpiperidin-1-yl)-3-methyl-1H-pyrazol-1-yl)-2-methylpropan-1-ol] | 9.10 | 7.85 | 
COc1cc2nc(N)n3nc(C4CC(C)CN(c5cnn(C(C)(C)CO)c5)C4)nc3c2cc1F (single isomer, unassigned) [Example 171, 2-(4-((3R,5S or 3S,5R)-3-(5-amino-9-fluoro-8-methoxy-[1,2,4]triazolo[1,5-c]quinazolin-2-yl)-5-methylpiperidin-1-yl)-1H-pyrazol-1-yl)-2-methylpropan-1-ol] | 8.92 | 7.95 | 
COc1cc2nc(N)n3nc(C4CC(C)CN(c5cnn(C(C)(C)CO)c5)C4)nc3c2cc1F (single isomer, unassigned) [Example 172, 2-(4-((3S,5R or 3R,5S)-3-(5-amino-9-fluoro-8-methoxy-[1,2,4]triazolo[1,5-c]quinazolin-2-yl)-5-methylpiperidin-1-yl)-1H-pyrazol-1-yl)-2-methylpropan-1-ol] | 7.22 |  | 14% Inh.
COc1cc(F)cc2c1nc(N)n1nc(C3CC(C)CN(c4cnn(CC(C)(C)O)c4C)C3)nc21 (single isomer, unassigned) [Example 173, 1-(4-((3R,5S or 3S,5R)-3-(5-amino-9-fluoro-7-methoxy-[1,2,4]triazolo[1,5-c]quinazolin-2-yl)-5-methylpiperidin-1-yl)-5-methyl-1H-pyrazol-1-yl)-2-methylpropan-2-ol] | 7.68 | 5.69 | 
COc1cc(F)cc2c1nc(N)n1nc(C3CC(C)CN(c4cnn(CC(C)(C)O)c4C)C3)nc21 (single isomer, unassigned) [Example 174, 1-(4-((3S,5R or 3R,5S)-3-(5-amino-9-fluoro-7-methoxy-[1,2,4]triazolo[1,5-c]quinazolin-2-yl)-5-methylpiperidin-1-yl)-5-methyl-1H-pyrazol-1-yl)-2-methylpropan-2-ol] | 9.22 | 7.51 | 
